{
  "source": "patent US10583154B2",
  "about": "“Multi-dose compositions containing an antimicrobial polyamide or octenidine preservative” (priority 2016, dated 2020)",
  "settings": "in vivo, iv",
  "data": [
    {"substance": "4,4′-trimethylene dipiperidine bispropanoic acid-co-1,3-diamino propane", "values": [
      {"measurement": "maximum tolerated dose", "result": "~40", "unit": "mg/kg"}
    ]}
  ]
}
